Legend:
bladder cancer = conditions: optimized schedule: 40 mg/20 cc (compared with 20 mg/20 cc), overnight dehydration, complete bladder emptying, alkalinization with sodium bicarbonate; cited from earlier work
[1] = cited from earlier work
[2] = given intravesically in doses as high as 1 billion units; cited from earlier work
[3] = In vivo study of coating and drug transfer from a stent, porcine coronary artery model; parameters: species or system Yucatan pig; conditions: for amount of drug detected in the arterial tissue: stent as in Example 1
Procedure: Another sample of the coated stent was prepared for in vivo evaluation in a porcine coronary artery model using the Yucatan pig. Subjects were initially given 650 mg acetylsalicylic acid and 300 mg Plavix. Maintenance doses of 81 mg acetylsalicylic acid and 75 mg Plavix were administered. The target ACT (activated clotting time) for the procedure was about 250 seconds. Stent oversizing in relation to the artery was about 10-20%. The preparation of the sirolimus-coated stent was the same as described in Example 1 and used for the in vitro deployment into tubing, except that the device was sterilized using ETO prior to implantation into the animal.
The bulk concentration of drug was measured in the arterial tissue surrounding the implanted stent at 1, 3, 7, 14, and 28 days after implant, and provided a quantitative measure of the high efficiency of transfer of drug into the therapeutic site using devices and methods of the invention. The amount of drug that was detected in the arterial tissue was as follows: 1 day after implant, ˜6 μg; 3 days after implant, ˜16 μg; 7 days after implant, ˜30 μg; 14 days after implant, ˜30 μg; 28 days after implant, ˜13 μg. Peak tissue concentration of sirolimus of ˜30 μg at 14 days after implant was representative of approximately ⅙^th of the total drug that had been loaded on the stent. Note that some drug likely metabolized or diffused out of the arterial tissue into other areas of the body.

[4] = parameters: dose or concentration left out as unconfirmed; conditions: estradiol release, as its 3-acetate ester; cited from earlier work

CO[C@@]12[C@H](COC(N)=O)C3=C(C(=O)C(C)=C(N)C3=O)N1C[C@@H]1N[C@@H]12 [Mitomycin C, mitomycin C]
recurrence (bladder cancer): nearly cut in half
stability in acid urine [1]: inactivated

Interferon Alpha 2b
dose-limiting side effects [2]: without dose-limiting side effects

CO[C@H]1C[C@@H]2CC[C@@H](C)[C@@](O)(O2)C(=O)C(=O)N2CCCC[C@H]2C(=O)O[C@H]([C@H](C)C[C@@H]2CC[C@@H](O)[C@H](OC)C2)CC(=O)[C@H](C)/C=C(\C)[C@@H](O)[C@@H](OC)C(=O)[C@H](C)C[C@H](C)/C=C/C=C/C=C/1C [sirolimus]
amount of drug detected in the arterial tissue ([3]; 1 day after implant): ~6 µg
amount of drug detected in the arterial tissue ([3]; 3 days after implant): ~16 µg
amount of drug detected in the arterial tissue ([3]; 7 days after implant): ~30 µg
amount of drug detected in the arterial tissue ([3]; 14 days after implant): ~30 µg
amount of drug detected in the arterial tissue ([3]; 28 days after implant): ~13 µg
Peak tissue concentration of sirolimus ([3]; at 14 days after implant): ~30 µg
peak tissue amount as fraction of the total drug loaded on the stent ([3]; at 14 days after implant): approximately ⅙

C[C@]12CC[C@@H]3c4ccc(O)cc4CC[C@H]3[C@@H]1CC[C@@H]2O [estradiol]
circulating plasma concentration of the drug [4]: 300 pmol/L
